The results in this text go back to US20230257385A1, “SALT AND SOLID FORMS OF TABERNANTHALOG” (priority 2021, published 2023).

In brackets after ≈: the same amount, converted by molar mass. A value given as a limit tells only on which side of the number the result lay.

What is called solubility is how much of the substance goes into solution per volume. The low end stands for a poorly soluble substance, the high end for a readily soluble substance.

A short description of data set [1]: Heat-up/cool-down crystallisation screen of sorbate salt (Example 10, Experiments 5, 8). The conditions noted are these: for Observations (t = 1 @ T = 20° C.): Tabernanthalog sorbate salt (Form A) crystallised from binary solvents, solvent A 3.0 vol plus solvent B, one pair per sample; for XRPD (centrifuged, wet): wet pellet. The data set is classed as physicochemical. The protocol:
The relevant solvent (0.225 ml, 3.0 vol) was added to the appropriate vial and the suspensions were stirred and warmed to temperature. If dissolution was not observed, further solvent was added until the solute dissolved, or aliquots of a secondary co-solvent were added to complete dissolution. Once dissolved, the solutions were left to cool down and stand undisturbed under sub-ambient conditions for several days. After crystallisation was judged complete, the products were isolated by centrifugation and the pellets were dried at 40° C. under reduced pressure. Products from the crystallisation (wet and dry) were initially analysed by XRPD (9-minute method), further analyses of certain products were performed by ^1H NMR, DSC and TGA, if the diffraction pattern indicated differences.

The nature of data set [2]: Solubility determinations in SIF buffers FaSSIF, FeSSIF, FaSSGF (Example 8, Experiment 5). The conditions noted are these: for Tabernanthalog RRT = 1.00 (trended HPLC data, chemical purity): tabernanthalog sorbate salt, 37° C. The procedure: The temperature was maintained at 37° C. for 24 h. […] The suspensions were sampled at the relevant time points and centrifuged. The centrifuged pellets, obtained at the time points were analysed by XRPD as a wet pellet and dried, for evidence of form change.
The temperature was maintained at 37° C. for 24 h.
The suspension was sampled at the relevant time points and centrifuged. […] The centrifuged pellets, obtained at the time points were analyzed by XRPD as a wet pellet and dried, for evidence of form change.

Data set [3] is described as follows: DVS 0 to 90 to 0% RH (mass equilibrated). The class given is physicochemical. The conditions noted are these: batch 8-A4.
Where [4] appears, read: Experiment 5, heat-up/cool-down crystallisation from binary solvents.
Where [5] appears, read: 37 °C, pH 1.6, fassgf or other biorelevant, thermodynamic from solid.
Setting [6] is: 37 °C, pH 5, fessif, thermodynamic from solid.
Setting [7] is: 37 °C, pH 6.5, fassif, thermodynamic from solid.

Take `C/C=C/C=C/C(=O)O.COc1ccc2c3c([nH]c2c1)CCN(C)CC3` [Experiment 5-Sample E]: the “Observations (t = 1 @ T = 20° C.)” value in data set [1] (Experiment 5) is “Partial”. In data set [1] (setting [4]), the “XRPD (oven dried @ 40° C., 20 h)” value is on record as “Form A” and the “XRPD (centrifuged, wet)” value is reported as “Form A”.
With `C/C=C/C=C/C(=O)O.COc1ccc2c3c([nH]c2c1)CCN(C)CC3` [Experiment 5-Sample Q], the “Observations (t = 1 @ T = 20° C.)” value in data set [1] (Experiment 5) is on record as “Solid”. In data set [1] (setting [4]), the “XRPD (oven dried @ 40° C., 20 h)” value is “Form A” and the “XRPD (centrifuged, wet)” value was “Pattern #1”.
In the same order, the values of `C/C=C/C=C/C(=O)O.COc1ccc2c3c([nH]c2c1)CCN(C)CC3` [Experiment 5-Sample N] are “Partial”, “Form A” and “Form A”.
In the same order, the values of `CC=CC=CC(=O)O.COc1ccc2c3c([nH]c2c1)CCN(C)CC3` [Experiment 5-Sample R] are “Liquid”, “Form A” and “Pattern #4”.
For `C/C=C/C=C/C(=O)O.COc1ccc2c3c([nH]c2c1)CCN(C)CC3` [Experiment 5-Sample C], the “Observations (t = 1 @ T = 20° C.)” value in data set [1] (Experiment 5) is “Solid”. Moreover, in data set [1] (setting [4]), the “XRPD (oven dried @ 40° C., 20 h)” value is listed as “Form A” and the “XRPD (centrifuged, wet)” value was “Form A”.
For `CC=CC=CC(=O)O.COc1ccc2c3c([nH]c2c1)CCN(C)CC3` [Experiment 8-Sample A], in data set [1] (Experiment 8, repeat of HUCD crystallisations aiming at Pattern #1 (water) and Pattern #6 (heptane/ethyl formate)), the “XRPD (centrifuged, wet)” value is on record as “Pattern #1”.
Take `CC=CC=CC(=O)O.COc1ccc2c3c([nH]c2c1)CCN(C)CC3` [Experiment 5-Sample B]: the “Observations (t = 1 @ T = 20° C.)” value in data set [1] (Experiment 5) is recorded as “Solid”. In addition, in data set [1] (setting [4]), the “XRPD (oven dried @ 40° C., 20 h)” value is on record as “Form A” and the “XRPD (centrifuged, wet)” value is listed as “Form A”.
Consider `CC=CC=CC(=O)O.COc1ccc2c3c([nH]c2c1)CCN(C)CC3` [Experiment 5-Sample A], for which the “Observations (t = 1 @ T = 20° C.)” value in data set [1] (Experiment 5) was “Partial”. In addition, in data set [1] (setting [4]), the “XRPD (oven dried @ 40° C., 20 h)” value is on record as “Form A” and the “XRPD (centrifuged, wet)” value is listed as “Form A”.
As to `C/C=C/C=C/C(=O)O.COc1ccc2c3c([nH]c2c1)CCN(C)CC3` [Experiment 5-Sample F], the “Observations (t = 1 @ T = 20° C.)” value in data set [1] (Experiment 5) is listed as “Partial”. In addition, in data set [1] (setting [4]), the “XRPD (oven dried @ 40° C., 20 h)” value is recorded as “Form A” and the “XRPD (centrifuged, wet)” value was “Form A”.
With `COc1ccc2c3c([nH]c2c1)CCN(C)CC3` [Tabernanthalog• Sorbate], in data set [2] (setting [5]), the solubility at 1 h was determined as 21.9 mg/mL (≈ 95 mM), the solubility at 3 h stood at 29.8 mg/mL (≈ 130 mM), the concentration in solution (solubility at 6 h) came to 30.3 mg/mL (≈ 131 mM) and the concentration in solution (solubility at 24 h) was 29.9 mg/mL (≈ 130 mM). For the same molecule, in data set [2] (setting [6]), the solubility at 1 h turned out to be 27.2 mg/mL (≈ 118 mM), the solubility at 3 h is > 30 mg/mL and the solubility at 6 h is > 30 mg/mL. In addition, in data set [2] (setting [7]), the solubility at 1 h was > 30 mg/mL, the solubility at 3 h was > 30 mg/mL and the solubility at 6 h is > 30 mg/mL. Moreover, the “XRPD (dried)” value in data set [2] (FaSSGF (pH 1.6), t = 1 h @37° C., suspended solid, dried pellet) is recorded as “Sorbic acid”. For the same molecule, the “XRPD (wet)” value in data set [2] (FaSSGF (pH 1.6), t = 1 h @37° C., suspended solid, wet pellet) is given as “Sorbic acid”.
As for `CC=CC=CC(=O)O.COc1ccc2c3c([nH]c2c1)CCN(C)CC3` [Experiment 5-Sample K], the “Observations (t = 1 @ T = 20° C.)” value in data set [1] (Experiment 5) was “Partial”. Moreover, in data set [1] (setting [4]), the “XRPD (oven dried @ 40° C., 20 h)” value is listed as “Form A” and the “XRPD (centrifuged, wet)” value was “Form A”.
On to `C/C=C/C=C/C(=O)O.COc1ccc2c3c([nH]c2c1)CCN(C)CC3` [Sample 5-L1], for which the “Tabernanthalog RRT = 1.00 (trended HPLC data, chemical purity)” value in data set [2] (t = 1 h in FaSSGF) came out at 99.52.
In the case of `C/C=C/C=C/C(=O)O.COc1ccc2c3c([nH]c2c1)CCN(C)CC3` [Experiment 5-Sample M], the “Observations (t = 1 @ T = 20° C.)” value in data set [1] (Experiment 5) is on record as “Liquid”. Further, in data set [1] (setting [4]), the “XRPD (oven dried @ 40° C., 20 h)” value is “Form A” and the “XRPD (centrifuged, wet)” value was “Form A”.
With `C/C=C/C=C/C(=O)O.COc1ccc2c3c([nH]c2c1)CCN(C)CC3` [Experiment 5-Sample O], the “Observations (t = 1 @ T = 20° C.)” value in data set [1] (Experiment 5) was “Liquid”. Also, in data set [1] (setting [4]), the “XRPD (oven dried @ 40° C., 20 h)” value is listed as “Form A” and the “XRPD (centrifuged, wet)” value is given as “Form A”.
On to `C/C=C/C=C/C(=O)O.COc1ccc2c3c([nH]c2c1)CCN(C)CC3` [Sample 5-L7], for which the “Tabernanthalog RRT = 1.00 (trended HPLC data, chemical purity)” value in data set [2] (t = 6 h in FaSSGF) came out at 99.30.
Turning to `CC=CC=CC(=O)O.COc1ccc2c3c([nH]c2c1)CCN(C)CC3` [Experiment 5-Sample H], the “Observations (t = 1 @ T = 20° C.)” value in data set [1] (Experiment 5) is on record as “Partial”. Further, in data set [1] (setting [4]), the “XRPD (oven dried @ 40° C., 20 h)” value is listed as “Form A” and the “XRPD (centrifuged, wet)” value is recorded as “Form A”.
As for `C/C=C/C=C/C(=O)O.COc1ccc2c3c([nH]c2c1)CCN(C)CC3` [Experiment 5-Sample P], the “Observations (t = 1 @ T = 20° C.)” value in data set [1] (Experiment 5) was “Partial”. Moreover, in data set [1] (setting [4]), the “XRPD (oven dried @ 40° C., 20 h)” value was “Form A” and the “XRPD (centrifuged, wet)” value is given as “Form A”.
For `C/C=C/C=C/C(=O)O.COc1ccc2c3c([nH]c2c1)CCN(C)CC3` [Experiment 5-Sample G], in data set [1] (Experiment 5), the “Observations (t = 1 @ T = 20° C.)” value was “Partial”. Besides, in data set [1] (setting [4]), the “XRPD (oven dried @ 40° C., 20 h)” value was “Form A” and the “XRPD (centrifuged, wet)” value is recorded as “Pattern #6”.
On to `COc1ccc2c3c([nH]c2c1)CCN(C)CC3` [fumarate], for which the “DVS 0 to 90 to 0% RH (dm/dt <0.002%)” value in data set [3] (desorption, 5.0% RH) was 0.1179%; in data set [3] (desorption, 10.0% RH), 0.1551%; in data set [3] (desorption, 15.0% RH) it was 0.1857%; in data set [3] (desorption, 20.0% RH), 0.2126%; in data set [3] (desorption, 25.0% RH) it was 0.2387%; in data set [3] (desorption, 30.0% RH), 0.2656%. In addition, the “DVS 0 to 90 to 0% RH (dm/dt <0.002%)” value in data set [3] (desorption, 40.0% RH) is reported as 0.3210%; in data set [3] (desorption, 50.0% RH) it was 0.3797%; in data set [3] (desorption, 60.0% RH) it was 0.4515%; in data set [3] (desorption, 70.0% RH), 0.5442%; in data set [3] (desorption, 80.0% RH), 0.6827%; in data set [3] (desorption, 90.0% RH), 0.9766%. In addition, the “DVS 0 to 90 to 0% RH (dm/dt <0.002%)” value was “DVS 0 to 90 to 0% RH (dm/dt <0.002%): 0.0 (0.0004%), 5.0” in data set [3] (sorption, 0.0% RH); 0.0627% in data set [3] (sorption, 5.0% RH); 0.0957% in data set [3] (sorption, 10.0% RH); 0.1397% in data set [3] (sorption, 15.0% RH); 0.1778% in data set [3] (sorption, 20.0% RH); 0.2093% in data set [3] (sorption, 25.0% RH). Moreover, the “DVS 0 to 90 to 0% RH (dm/dt <0.002%)” value in data set [3] (sorption, 30.0% RH) was 0.2401%; in data set [3] (sorption, 40.0% RH) it was 0.3145%; in data set [3] (sorption, 50.0% RH) it was 0.4051%; in data set [3] (sorption, 70.0% RH), 0.5451%; in data set [3] (sorption, 80.0% RH), 0.6660%; in data set [3] (sorption, 90.0% RH) it was 0.9766%.
Take `C/C=C/C=C/C(=O)O.COc1ccc2c3c([nH]c2c1)CCN(C)CC3` [Experiment 5-Sample I]: the “Observations (t = 1 @ T = 20° C.)” value in data set [1] (Experiment 5) is “Liquid”. For the same molecule, in data set [1] (setting [4]), the “XRPD (oven dried @ 40° C., 20 h)” value is recorded as “Form A” and the “XRPD (centrifuged, wet)” value is given as “Form A”.
On to `C/C=C/C=C/C(=O)O.COc1ccc2c3c([nH]c2c1)CCN(C)CC3` [Experiment 5-Sample L], for which, in data set [1] (Experiment 5), the “Observations (t = 1 @ T = 20° C.)” value is given as “Partial”. For the same molecule, in data set [1] (setting [4]), the “XRPD (oven dried @ 40° C., 20 h)” value was “Form A” and the “XRPD (centrifuged, wet)” value was “Form A”.
Consider `C/C=C/C=C/C(=O)O.COc1ccc2c3c([nH]c2c1)CCN(C)CC3` [Experiment 5-Sample J], for which, in data set [1] (Experiment 5), the “Observations (t = 1 @ T = 20° C.)” value is given as “Partial”. In data set [1] (setting [4]), the “XRPD (oven dried @ 40° C., 20 h)” value was “Form A” and the “XRPD (centrifuged, wet)” value is reported as “Form A”.
For the molecule `C/C=C/C=C/C(=O)O.COc1ccc2c3c([nH]c2c1)CCN(C)CC3` [Experiment 5-Sample D], the “Observations (t = 1 @ T = 20° C.)” value in data set [1] (Experiment 5) is listed as “Liquid”. Besides, in data set [1] (setting [4]), the “XRPD (oven dried @ 40° C., 20 h)” value is “Form A” and the “XRPD (centrifuged, wet)” value is “Form A”.
